In ChEMBL document CHEMBL3425418 (Bioorg Med Chem Lett, 2015):

Tests used:
[1] = Half life in Sprague-Dawley rat at 2.5 mg/kg, po; format: ADME, organism-based; set-up: dose 2.5 mg/kg, route oral; settings: in vivo
[2] = AUC (0 to time) in Sprague-Dawley rat at 2.5 mg/kg, po; format: ADME, organism-based; set-up: dose 2.5 mg/kg, route oral; settings: plasma
[3] = Mean residence time in Sprague-Dawley rat at 2.5 mg/kg, po; format: ADME, organism-based; set-up: dose 2.5 mg/kg, route oral; settings: in vivo
[4] = Cmax in Sprague-Dawley rat at 2.5 mg/kg, po; format: ADME, organism-based; set-up: dose 2.5 mg/kg, route oral; settings: in vivo
Homo sapiens [5] = species: Homo sapiens; test: Toxicity in metastatic renal cell carcinoma patient assessed as dysphonia; format: organism-based
Homo sapiens [6] = species: Homo sapiens; test: Toxicity in metastatic renal cell carcinoma patient assessed as hypertension; format: organism-based
Ephrin type-B receptor 2 = molecular target: T1, Ephrin type-B receptor 2 (Homo sapiens, UniProt P29323); test: Inhibition of recombinant EphB2 (unknown origin) by cell-free assay
T1 sequence (P29323 whole entry): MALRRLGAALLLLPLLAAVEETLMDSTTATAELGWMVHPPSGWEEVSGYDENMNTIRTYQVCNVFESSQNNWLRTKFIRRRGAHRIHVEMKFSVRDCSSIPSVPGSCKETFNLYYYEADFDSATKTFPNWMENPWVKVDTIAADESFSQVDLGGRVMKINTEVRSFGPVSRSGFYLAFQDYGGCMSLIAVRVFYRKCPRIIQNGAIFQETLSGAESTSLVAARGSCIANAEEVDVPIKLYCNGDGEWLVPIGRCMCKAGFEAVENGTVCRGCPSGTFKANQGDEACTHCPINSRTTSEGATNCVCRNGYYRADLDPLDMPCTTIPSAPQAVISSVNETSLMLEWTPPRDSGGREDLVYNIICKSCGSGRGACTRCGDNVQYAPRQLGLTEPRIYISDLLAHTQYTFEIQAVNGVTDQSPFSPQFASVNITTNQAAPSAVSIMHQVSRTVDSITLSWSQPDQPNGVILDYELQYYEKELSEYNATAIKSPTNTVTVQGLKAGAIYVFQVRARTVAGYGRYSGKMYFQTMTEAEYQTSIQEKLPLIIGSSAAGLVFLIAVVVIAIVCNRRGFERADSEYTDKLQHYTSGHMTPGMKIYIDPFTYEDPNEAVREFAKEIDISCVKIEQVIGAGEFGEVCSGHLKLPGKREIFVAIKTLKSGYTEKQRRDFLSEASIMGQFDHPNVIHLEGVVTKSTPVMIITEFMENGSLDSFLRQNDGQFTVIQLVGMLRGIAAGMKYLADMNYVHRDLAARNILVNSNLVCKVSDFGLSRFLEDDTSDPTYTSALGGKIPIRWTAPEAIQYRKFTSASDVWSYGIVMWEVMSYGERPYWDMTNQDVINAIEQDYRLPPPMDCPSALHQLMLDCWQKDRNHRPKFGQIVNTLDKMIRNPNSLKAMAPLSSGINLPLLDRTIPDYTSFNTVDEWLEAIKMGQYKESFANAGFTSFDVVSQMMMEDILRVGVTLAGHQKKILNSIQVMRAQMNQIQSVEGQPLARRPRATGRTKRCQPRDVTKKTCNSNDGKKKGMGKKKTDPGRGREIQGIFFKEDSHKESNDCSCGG

[7] = Tmax in Sprague-Dawley rat at 2.5 mg/kg, po; format: ADME, organism-based; set-up: dose 2.5 mg/kg, route oral; settings: in vivo
[8] = AUC (0 to infinity) in Sprague-Dawley rat at 2.5 mg/kg, po; format: ADME, organism-based; set-up: time infinity, dose 2.5 mg/kg, route oral; settings: plasma

Row | half-life [1] [h] | AUC [2] [µg·h/mL] | MRT [3] [h] | Cmax [4] [µg/mL] | IC50 (Ephrin type-B receptor 2) [µM] | Tmax [7] [h] | AUC(0-inf) [8] [µg·h/mL] | Structure (SMILES) | Activity (Homo sapiens [5]) [%] | Activity (Homo sapiens [6]) [%]
1 | 9.35 | 47.5 | 13.4 | 3.06 | 0.0175 | 4.8 | 49.1 | COc1cc2nccc(Oc3ccc(NC(=O)Nc4cc(C)on4)c(Cl)c3)c2cc1OC [TIVOZANIB] | 21 | 44
2 | 11.1 | 69.7 | 15.8 | 3.98 | 0.0268 | 5 | 73.9 | [2H]C([2H])([2H])Oc1cc2nccc(Oc3ccc(NC(=O)Nc4cc(C)on4)c(Cl)c3)c2cc1OC([2H])([2H])[2H] |  | 
3 |  |  |  |  |  |  |  | CNC(=O)c1cc(Oc2ccc(NC(=O)Nc3ccc(Cl)c(C(F)(F)F)c3)cc2)ccn1 [SORAFENIB] | 5 | 34
